Source: ChEMBL document CHEMBL5518240 (J Med Chem, 2024)

Experiments:
LNCaP = test: Reduction in AR gene expression in AR positive human LNCaP cells assessed as reduction in mRNA level measured after 6 hrs by qRT-PCT analysis relative to control; format: functional, cell-based; settings: dose 0.1-1000 nM
[1] = molecular target: T1, Protein cereblon/CREB-binding protein (Homo sapiens, UniProt Q92793+Q96SW2); test: PROTAC activity at CBP/CRBN in AR positive human VCaP cells assessed as maximal protein degradation at 0.15 nM incubated for 4 hrs by Western blot analysis relative to control; format: cell-based
Target sequence in this assay (Q92793 2-2442 limits assumed): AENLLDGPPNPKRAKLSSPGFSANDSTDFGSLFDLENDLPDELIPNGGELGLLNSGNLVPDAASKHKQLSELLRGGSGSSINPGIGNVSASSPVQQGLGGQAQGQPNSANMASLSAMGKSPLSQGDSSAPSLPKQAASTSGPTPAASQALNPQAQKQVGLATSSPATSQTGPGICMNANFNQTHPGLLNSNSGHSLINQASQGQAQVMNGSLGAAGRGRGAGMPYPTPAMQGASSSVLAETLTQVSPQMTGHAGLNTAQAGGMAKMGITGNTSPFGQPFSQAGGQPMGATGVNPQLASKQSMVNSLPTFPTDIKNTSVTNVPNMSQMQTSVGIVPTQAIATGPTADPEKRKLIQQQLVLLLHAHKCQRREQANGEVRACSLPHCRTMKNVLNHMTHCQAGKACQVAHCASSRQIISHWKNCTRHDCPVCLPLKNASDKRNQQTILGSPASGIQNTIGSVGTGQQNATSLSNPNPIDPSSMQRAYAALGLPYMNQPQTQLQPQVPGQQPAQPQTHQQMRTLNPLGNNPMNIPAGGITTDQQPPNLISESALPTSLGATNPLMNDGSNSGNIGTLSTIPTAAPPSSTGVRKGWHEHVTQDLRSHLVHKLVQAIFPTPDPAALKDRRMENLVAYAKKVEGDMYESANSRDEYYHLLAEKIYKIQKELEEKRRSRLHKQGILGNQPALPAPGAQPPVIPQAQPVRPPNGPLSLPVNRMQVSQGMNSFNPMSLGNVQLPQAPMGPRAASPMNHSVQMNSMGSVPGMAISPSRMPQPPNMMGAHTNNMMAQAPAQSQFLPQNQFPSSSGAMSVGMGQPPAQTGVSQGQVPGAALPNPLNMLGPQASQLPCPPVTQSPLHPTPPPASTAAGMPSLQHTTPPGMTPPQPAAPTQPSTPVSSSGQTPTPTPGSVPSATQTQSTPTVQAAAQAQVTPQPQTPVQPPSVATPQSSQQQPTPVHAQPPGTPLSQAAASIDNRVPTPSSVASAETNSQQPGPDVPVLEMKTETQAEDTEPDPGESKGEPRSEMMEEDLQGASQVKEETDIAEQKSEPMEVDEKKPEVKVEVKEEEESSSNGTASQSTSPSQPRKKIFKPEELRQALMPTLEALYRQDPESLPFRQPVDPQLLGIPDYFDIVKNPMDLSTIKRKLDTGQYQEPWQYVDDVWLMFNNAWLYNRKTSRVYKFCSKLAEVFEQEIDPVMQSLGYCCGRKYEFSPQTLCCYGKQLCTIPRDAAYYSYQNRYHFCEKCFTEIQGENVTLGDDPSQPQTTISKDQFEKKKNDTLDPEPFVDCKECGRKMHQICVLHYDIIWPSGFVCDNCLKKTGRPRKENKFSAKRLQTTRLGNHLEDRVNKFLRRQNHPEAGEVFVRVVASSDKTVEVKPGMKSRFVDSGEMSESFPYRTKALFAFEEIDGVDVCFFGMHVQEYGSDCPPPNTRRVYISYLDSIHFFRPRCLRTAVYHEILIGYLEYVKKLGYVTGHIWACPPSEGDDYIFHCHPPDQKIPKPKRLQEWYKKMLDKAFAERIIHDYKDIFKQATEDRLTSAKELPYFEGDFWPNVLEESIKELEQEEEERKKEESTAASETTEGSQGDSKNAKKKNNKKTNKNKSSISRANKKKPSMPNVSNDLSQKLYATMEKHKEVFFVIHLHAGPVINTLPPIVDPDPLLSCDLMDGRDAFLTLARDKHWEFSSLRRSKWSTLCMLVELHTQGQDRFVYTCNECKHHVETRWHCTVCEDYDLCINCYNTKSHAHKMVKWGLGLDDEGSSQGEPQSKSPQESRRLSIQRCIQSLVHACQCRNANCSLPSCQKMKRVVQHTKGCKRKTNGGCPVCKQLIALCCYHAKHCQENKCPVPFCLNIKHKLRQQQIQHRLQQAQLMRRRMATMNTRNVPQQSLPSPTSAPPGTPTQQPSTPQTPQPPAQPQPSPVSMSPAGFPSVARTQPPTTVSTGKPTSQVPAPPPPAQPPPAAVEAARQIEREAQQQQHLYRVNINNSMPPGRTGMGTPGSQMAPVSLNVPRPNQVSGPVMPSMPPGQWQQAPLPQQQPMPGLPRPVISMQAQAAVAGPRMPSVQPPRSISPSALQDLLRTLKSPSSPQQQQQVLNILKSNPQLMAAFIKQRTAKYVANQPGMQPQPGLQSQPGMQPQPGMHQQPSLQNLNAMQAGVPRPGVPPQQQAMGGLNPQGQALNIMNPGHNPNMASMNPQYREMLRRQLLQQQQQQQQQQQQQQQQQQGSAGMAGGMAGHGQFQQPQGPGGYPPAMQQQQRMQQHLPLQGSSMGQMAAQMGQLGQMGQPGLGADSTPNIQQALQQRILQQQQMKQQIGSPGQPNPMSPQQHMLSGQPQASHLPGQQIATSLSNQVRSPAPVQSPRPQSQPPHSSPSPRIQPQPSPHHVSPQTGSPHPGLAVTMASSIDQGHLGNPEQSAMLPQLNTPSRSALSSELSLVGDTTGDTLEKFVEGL
Target sequence in this assay (Q96SW2 whole entry partner): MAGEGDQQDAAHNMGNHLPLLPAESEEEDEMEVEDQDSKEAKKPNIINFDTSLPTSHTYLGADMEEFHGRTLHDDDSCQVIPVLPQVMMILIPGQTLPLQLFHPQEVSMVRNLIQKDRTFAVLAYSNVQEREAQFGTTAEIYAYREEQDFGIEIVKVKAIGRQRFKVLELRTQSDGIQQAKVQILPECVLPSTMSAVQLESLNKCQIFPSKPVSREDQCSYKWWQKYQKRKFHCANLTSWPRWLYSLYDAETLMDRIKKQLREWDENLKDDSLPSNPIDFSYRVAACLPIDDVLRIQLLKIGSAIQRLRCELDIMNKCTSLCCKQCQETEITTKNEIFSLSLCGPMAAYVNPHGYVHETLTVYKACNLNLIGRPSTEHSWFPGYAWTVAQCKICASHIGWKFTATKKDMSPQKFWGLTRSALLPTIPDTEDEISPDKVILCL

[2] = AUC in male ICR mouse at 3 mg/kg, po measured upto 24 hrs by LC-MS/MS analysis; format: ADME, organism-based; settings: in vivo
[3] = Reduction in KLK3 gene expression in AR positive human VCaP cells assessed as reduction in mRNA level at 1 nM measured after 6 hrs by qRT-PCT analysis relative to control; format: functional
[4] = Plasma concentration in CB17 SCID mouse xenografted with human VCaP cells at 3 mg/kg, po measured after 3 hrs by LC-MS/MS analysis; format: ADME, organism-based
[5] = molecular target: T2, Protein cereblon/Histone acetyltransferase p300 (Homo sapiens, UniProt Q09472+Q96SW2); test: PROTAC activity at p300/CRBN in AR positive human VCaP cells assessed as maximal protein degradation at 333 nM incubated for 4 hrs by Western blot analysis relative to control; format: cell-based
[6] = molecular target: T2, Protein cereblon/Histone acetyltransferase p300; test: PROTAC activity at p300/CRBN in human VCaP cells assessed as protein degradation incubated for 4 hrs by Western blot analysis; format: cell-based
[7] = Plasma concentration in CB17 SCID mouse xenografted with human VCaP cells at 1 mg/kg, po measured after 24 hrs by LC-MS/MS analysis; format: ADME, organism-based
[8] = molecular target: T1, Protein cereblon/CREB-binding protein; test: PROTAC activity at CBP/CRBN in human 22Rv1 cells assessed as protein degradation incubated for 4 hrs by Western blot analysis; format: cell-based
VCaP = test: Antitumor activity against human VCaP cells xenografted in CB17 SCID mouse model assessed as tumor growth inhibition at 1 mg/kg, po qod scheduled 5 days in a week measured on day 63; format: functional; settings: 1512 h, time 63 day, read-out: TGI
[9] = Reduction in c-Myc gene expression in AR positive human LNCaP cells assessed as reduction in mRNA level at 10 nM measured after 6 hrs by qRT-PCT analysis relative to control; format: functional
[10] = molecular target: T2, Protein cereblon/Histone acetyltransferase p300; test: PROTAC activity at p300/CRBN in human LNCaP cells assessed as maximal protein degradation at 1 uM incubated for 4 hrs by Western blot analysis relative to control; format: cell-based
[11] = molecular target: T1, Protein cereblon/CREB-binding protein; test: PROTAC activity at CBP/CRBN in AR positive human VCaP cells assessed as maximal protein degradation at 1000 nM incubated for 4 hrs by Western blot analysis relative to control; format: cell-based
Target sequence in this assay (Q92793 2-2442 limits assumed): as the sequence (Q92793 2-2442 limits assumed) above
Target sequence in this assay (Q96SW2 whole entry partner): as the sequence (Q96SW2 whole entry partner) above

[12] = Clearance in male ICR mouse at 1 mg/kg, iv measured upto 24 hrs by LC-MS/MS analysis; format: ADME, organism-based; settings: in vivo
[13] = Reduction in c-Myc gene expression in AR positive human 22Rv1 cells assessed as reduction in mRNA level at 10 nM measured after 6 hrs by qRT-PCT analysis relative to control; format: functional, CWR22R
[14] = molecular target: T1, Protein cereblon/CREB-binding protein; test: In vivo PROTAC activity at p300/CRBN in human VCaP cells xenografted in CB17 SCID mouse assessed as reduction in CBP protein at 3 mg/kg, po measured after 24 hrs; format: functional, organism-based; design: scale not given: the % may be the effect or the level left
Target sequence in this assay (Q92793 2-2442 limits assumed): as the sequence (Q92793 2-2442 limits assumed) above
Target sequence in this assay (Q96SW2 whole entry partner): as the sequence (Q96SW2 whole entry partner) above

CWR22R = test: Reduction in KLK3 gene expression in AR positive human 22Rv1 cells assessed as reduction in mRNA level measured after 6 hrs by qRT-PCT analysis relative to control; format: functional, cell-based; settings: dose 0.1-1000 nM
[15] = molecular target: T1, Protein cereblon/CREB-binding protein; test: In vivo PROTAC activity at CBP/CRBN in human VCaP cells xenografted in SCID mouse assessed as reduction in CBP protein at 3 mg/kg, po measured after 24 hrs; format: functional, organism-based; design: scale not given: the % may be the effect or the level left
Target sequence in this assay (Q92793 2-2442 limits assumed): as the sequence (Q92793 2-2442 limits assumed) above
Target sequence in this assay (Q96SW2 whole entry partner): as the sequence (Q96SW2 whole entry partner) above

[16] = molecular target: T1, Protein cereblon/CREB-binding protein; test: In vivo PROTAC activity at CBP/CRBN in human VCaP cells xenografted in SCID mouse assessed as reduction in CBP protein at 3 mg/kg, po measured after 3 hrs; format: functional, organism-based; design: scale not given: the % may be the effect or the level left
Target sequence in this assay (Q92793 2-2442 limits assumed): as the sequence (Q92793 2-2442 limits assumed) above
Target sequence in this assay (Q96SW2 whole entry partner): as the sequence (Q96SW2 whole entry partner) above

[17] = Reduction in AR gene expression in AR positive human LNCaP cells assessed as reduction in mRNA level at 10 nM measured after 6 hrs by qRT-PCT analysis relative to control; format: functional
[18] = molecular target: T2, Protein cereblon/Histone acetyltransferase p300; test: PROTAC activity at p300/CRBN in human LNCaP cells assessed as protein degradation incubated for 4 hrs by Western blot analysis; format: cell-based
[19] = Oral bioavailability in male ICR mouse at 3 mg/kg measured upto 24 hrs by LC-MS/MS analysis; format: ADME, organism-based; settings: in vivo
[20] = Cmax in male ICR mouse at 3 mg/kg, po measured upto 24 hrs by LC-MS/MS analysis; format: ADME, organism-based; settings: in vivo
[21] = molecular target: T1, Protein cereblon/CREB-binding protein; test: PROTAC activity at CBP/CRBN in human 22Rv1 cells assessed as reduction in protein level at 100 nM incubated for 4 hrs by multiplexed quantitative proteomics analysis relative to control; format: cell-based; design: scale not given: the % may be the effect or the level left
Target sequence in this assay (Q92793 2-2442 limits assumed): as the sequence (Q92793 2-2442 limits assumed) above
Target sequence in this assay (Q96SW2 whole entry partner): as the sequence (Q96SW2 whole entry partner) above

[22] = Half life in male ICR mouse at 3 mg/kg, po measured upto 24 hrs by LC-MS/MS analysis; format: ADME, organism-based; settings: in vivo
[23] = molecular target: T2, Protein cereblon/Histone acetyltransferase p300; test: PROTAC activity at p300/CRBN in AR positive human VCaP cells assessed as maximal protein degradation at 4.1 nM incubated for 4 hrs by Western blot analysis relative to control; format: cell-based

**Q.** Which inhibition (LNCaP) does the source give for `CC(=O)N1CCc2c(c(N3CCCc4cc(-c5cnn(C)c5)c(C(F)F)cc43)nn2[C@H]2CC[C@H](CN3CCN(c4ccc5c(c4)C(=O)N(C4CCC(=O)NC4=O)C5=O)CC3)CC2)C1` (stereo partly specified) here?
**A.** Dose-Dependent Effect

**Q.** And the Activity [1]?
**A.** 15%

**Q.** And the AUC at 24 h [2]?
**A.** 15500 ng·h/mL

**Q.** And the inhibition at 0.001 µM [3]?
**A.** 57%

**Q.** And the concentration at 3 h [4]?
**A.** 355 ng/mL

**Q.** What about the Activity [5] of the same compound?
**A.** 94%

**Q.** And the DC50 [6]?
**A.** 0.2 nM

**Q.** What about the concentration at 24 h [7] of the same compound?
**A.** 16 ng/mL

**Q.** And the DC50 [8]?
**A.** 0.2 nM

**Q.** And the inhibition in vivo at 1 mg/kg (VCaP)?
**A.** 71%

**Q.** And the inhibition at 0.01 µM [9]?
**A.** > 95%

**Q.** And the Emax [10]?
**A.** 95%

**Q.** What about the Activity [11] of the same compound?
**A.** 51%

**Q.** And the clearance [12]?
**A.** 1.7 mL/min/kg

**Q.** And the inhibition at 0.01 µM [13]?
**A.** > 95%

**Q.** And the Activity [14]?
**A.** > 95%

**Q.** What about the inhibition (CWR22R) of the same compound?
**A.** Dose-Dependent Effect

**Q.** And the Activity [15]?
**A.** > 95%

**Q.** And the Activity [16]?
**A.** > 95%

**Q.** And the inhibition at 0.01 µM [17]?
**A.** 67%

**Q.** What about the DC50 [18] of the same compound?
**A.** 0.4 nM

**Q.** What about the bioavailability [19] of the same compound?
**A.** 50%

**Q.** What about the Cmax [20] of the same compound?
**A.** 2490 ng/mL

**Q.** And the Activity [21]?
**A.** 50%

**Q.** And the half-life [22]?
**A.** 2.6 h

**Q.** What about the Activity [23] of the same compound?
**A.** 100%
